Patent US11440923B2, “Substituted macrocyclic indole derivatives” (Bayer Aktiengesellschaft, priority 2017, dated 2022)
Where a name gives a salt, the structure may show the parent alone. Read-outs that look alike come from different tables or passages of the source.

Key:
Type in all cases: cell-based
SUDHL5 cells [1] = assay: Induction of caspase-3/7 activity in SUDHL5 cells (Assay 4)
In short: (§1)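 Read-out: Caspase-Glo 3/7 luminescence (1 h, 37 °C) after cells, plated overnight, were treated with compounds for 3 h at 37 °C. Signal corrected for cell-free medium background and expressed relative to DMSO control mean.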

SUDHL10 cells [2] = assay: Induction of caspase-3/7 activity in SUDHL10 cells (Assay 4)
In short: as §1

[3] = target: MCL1 protein / biotinylated BIM BH3 peptide in RKO cells (Homo sapiens (Human), UniProt Q07820); assay: PIxEL: protein-protein interaction in permeabilized cells by ELISA (Assay 5); details: PIxEL IC50 (median)
Method: PIxEL: Protein-Protein Interaction in Permeabilized Cells by ELISA
Most MCL1 protein molecules are localized at the mitochondria outer membrane and sequester pro-apoptotic proteins through binding of their BCL2 homology domain 3 (BH3 domain). MEB buffer (150 mM mannitol, 10 mM HEPES pH 7.5, 50 mM KCl, 20 μM EDTA, 20 μM EGTA, 5 mM potassium succinate, 0.1% protease-free BSA (SIGMA) with low dose digitonin (0.002%) permeabilizes plasma membrane while leaves live mitochondria, where MCL1 maintains its native localization and conformation. Unlike biophysical assays (e.g. TR-FRET) that use truncated recombinant MCL1 protein, this assay uses full length endogenous MCL1 protein at mitochondria outer membrane. It measures the interaction between MCL1 protein and biotinylated BIM BH3 peptide. Compounds can compete with BIM BH3 peptide to bind to MCL1 protein.
On day 1, RKO colon cancer cell line cells were plated at 0.8 million cells/ml, 100 μl/well in 96-well flat bottom TC plates (Corning). MCL1 antibody (Santa Cruz sc-12756) were diluted at 200 fold (final concentration 1 μg/ml) in carbonate buffer (Thermo Fisher Scientific, pH 9.6), and 50 μl of diluted antibody was added to each well of high bind ELISA plates ([…]). Each plate was tapped to make sure liquid covering entire bottom of wells and incubate at 37° C. overnight.
On the second day, MCL1 antibody was washed from ELISA plate. 250 μl Odyssey® Blocking Buffer (PBS) (Li-Cor) was added to each well, incubated at room temperature for at least 1 hour, then washed once with 250 μl 1×PBST. Plates with RKO cells were gently washed once with 100 μl/well PBS, once with 100 μl/well MEB buffer without digitonin, then 100 μl of MEB buffer with 0.002% digitonin was gently added to each well. Compounds were added with HP Tecan compound dispenser in 3-fold dilution series, highest dose 30 μM, 10-dose per compound in quadruplicates. Biotin-BIM peptide (synthesized by 21st Century) was added with HP Tecan compound dispenser at 0.2 μM immediately after the addition of compounds. Plates were rocked for 1 hour at room temperature. Then MEB buffer was aspirated and 50 μl of CHAPS buffer (50 mM Tris-Cl, pH 7.4, 150 mM NaCl, 1% CHAPS, 1 mM EDTA, 1 mM EGTA, cOmplete protease inhibitors (Roche), PhosSTOP (Roche)) was added to each well. Plates were rocked for 1 hour at 4° C., then 45 μl cell lysate from each well were transferred to ELISA plates coated with MCL1 antibody. Plates were incubated overnight in the cold room with rocking.
On the third day, ELISA plates were washed once with 250 μl 1×PBST. Streptavidin-poly-HRP (Thermo Fisher Scientific) was diluted to 20 ng/ml in Odyssey blocking buffer plus 0.05% Triton-100, and 100 μl was added to each well of the ELISA plate. Plates were incubated at room temperature for 1 hour with rocking, then washed with 100 μl 1×PBST for 3 times. Each SuperSignal ELISA Femto Maximum Sensitivity substrate was added to a 50-ml tube and mixed, then 100 μl of mixed substrate was added to each well. Plates were shaken for 1 minute then luminescence was measured by Envision plate reader […]. Signal of each well were normalized by no-compound control and no-cell control. IC50 was calculated using Graphic Pad PRISM software.

SUDHL5 cells [4] = assay: Induction of cytotoxicity in SUDHL5 cells (Assay 6); details: 5 h, CellTiter-Glo, read-out: Cytotox SUDHL5 IC50 (median)
In short: (§2)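 Cells plated overnight at 37 °C, then exposed to compound for 5 h in a humidified incubator at 37 °C. Viability read by CellTiter-Glo luminescence after 15 min shaking at room temperature; cell-free medium served as control.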

SUDHL10 cells [5] = assay: Induction of cytotoxicity in SUDHL10 cells (Assay 6); details: 5 h, CellTiter-Glo, read-out: Cytotox SUDHL10 IC50 (median)
In short: as §2

SUDHL5 cells [6] = assay: Antiproliferation assay SUDHL5 (Assay 7)
In short: (§3)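 After overnight attachment at 37 °C, cells received compound for 72 h in a humidified incubator. Viability was read by CellTiter-Glo luminescence. A separate day 0 plate defined starting cell number for IC50 fitting against DMSO controls.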

AMO-1 cells = assay: Antiproliferation assay AMO-1 (Assay 7); details: 72 h, CellTiter-Glo, read-out: Antiproli AMO-1 IC50 median
In short: as §3

HMC-1-8 cells = assay: Antiproliferation assay HMC-1-8 (Assay 7)
In short: as §3

SNU-389 cells = assay: Antiproliferation assay SNU-389 (Assay 7); details: 72 h, CellTiter-Glo; read-out: Antiproli SNU-389 IC50
Method: (§4) Assessment of the Anti-Proliferative Effect of Compounds in Different Cell Lines
(§5) The impact of compounds on the proliferation of different cell lines was assessed using the CellTiter-Glo® Luminescent Cell Viability reagent from Promega (G7573).
(§6) In parallel, cells were plated in a reference (day 0) plate for time zero determination. Cells were incubated in a humidified incubator at 37° C. overnight.
(§7) Rim wells were excluded. The cells were incubated for 72 h hours in a humidified incubator at 37° C. The day 0 plate was measured by adding 30 μL/well of CTG solution (CellTiter-Glo® Luminescent Cell Viability reagent, Promega G7573) to time zero wells in the reference plate followed by a 10 minutes incubation and luminescence reading at 0.1 ms. using the PHERAstar FS microplate reader (BMG Labtech).
(§8) After 72 h incubation, the treated plates were measured in the same way as the day 0 plate mentioned above. The Bella DRC Master Sheet was used to calculate IC50s, with CI=day 0 values and C0=DMSO control values.

SK-MEL-2 cells = assay: Antiproliferation assay SK-MEL-2 (Assay 7); details: Homo sapiens, SK-MEL-2; 72 h, CellTiter-Glo; read-out: Antiproli SK-MEL-2 IC50 median
Method: as §4, §5, §6, §7, §8

SNU-16 cells = assay: Antiproliferation assay SNU-16 (Assay 7); details: Homo sapiens, SNU-16; 72 h, CellTiter-Glo; read-out: Antiproli SNU-16 IC50 median
Method: as §4, §5, §6, §7, §8

A-431 cells = assay: Antiproliferation assay A-431 (Assay 7); details: Homo sapiens, A-431; 72 h, CellTiter-Glo; read-out: Antiproli A-431 IC50 median
Method: as §4, §5, §6, §7, §8

PA-1 cells = assay: Antiproliferation assay PA-1 (Assay 7); details: Homo sapiens, PA-1; 72 h, CellTiter-Glo; read-out: Antiproli PA-1 IC50 median
Method: as §4, §5, §6, §7, §8

DMS-114 cells = assay: Antiproliferation assay DMS-114 (Assay 7); details: Homo sapiens; DMS-114 cells, 72 h, CellTiter-Glo; read-out: Antiproli DM-S114 IC50 median
Method: as §4, §5, §6, §7, §8

[7] = caspase-3/7 induction, 3 h; read-out: Caspase SUDHL5 EC50 (median)
[8] = caspase-3/7 induction, 3 h; read-out: Caspase SUDHL10 EC50 (median)
[9] = 72 h, CellTiter-Glo; read-out: Antiproli SUDHL5 IC50 (median)
[10] = 72 h, CellTiter-Glo; read-out: Antiproli HMC-1-8 IC50 median

MCL1 protein / biotinylated BIM BH3 peptide in RKO cells, sequence (Q07820 whole entry): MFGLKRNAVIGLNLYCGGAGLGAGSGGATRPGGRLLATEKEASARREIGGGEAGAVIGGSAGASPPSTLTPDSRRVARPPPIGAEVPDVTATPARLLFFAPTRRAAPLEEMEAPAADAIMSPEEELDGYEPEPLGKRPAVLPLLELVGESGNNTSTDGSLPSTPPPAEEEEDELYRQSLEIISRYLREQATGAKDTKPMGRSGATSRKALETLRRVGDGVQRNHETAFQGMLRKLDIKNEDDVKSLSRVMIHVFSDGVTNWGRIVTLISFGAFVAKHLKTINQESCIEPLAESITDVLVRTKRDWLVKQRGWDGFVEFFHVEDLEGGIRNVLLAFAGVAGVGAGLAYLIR

Row | EC50 (SUDHL5 cells [1]; [7]) [nM] | EC50 (SUDHL10 cells [2]; [8]) [nM] | IC50 (SUDHL5 cells [6]; [9]) [nM] | IC50 (SNU-389 cells) [nM] | IC50 (SK-MEL-2 cells) [nM] | IC50 (SNU-16 cells) [nM] | IC50 (A-431 cells) [nM] | Structure (SMILES) | IC50 (SUDHL5 cells [4]) [nM] | IC50 (AMO-1 cells) [nM] | IC50 (HMC-1-8 cells; [10]) [nM] | IC50 (PA-1 cells) [nM] | IC50 (DMS-114 cells) [nM] | other results
1 | – | – | – | – | – | – | – | Cc1c2c(nn1C)C(CCN1CCOCC1)OCCCCn1c(C(=O)O)c(CCCOc3cccc4ccccc34)c3ccc(F)c-2c31 (single isomer, unassigned; enantiomer 1) [Example 8, 4-fluoro-2,3-dimethyl-15-[2-(morpholin-4-yl)ethyl]-7-{3-[(naphthalen-1-yl)oxy]propyl}-2,10,11,12,13,15-hexahydropyrazolo[4′,3′:9,10][1,6]oxazacycloundecino[8,7,6-hi]indole-8-carboxylic Acid—N-ethylethanamine Salt (Enantiomer 1)] | 76 | – | – | – | – | EC50 (SUDHL5 cells [1]; read-out: Caspase SUDHL5 EC50 (median); caspase-3/7 induction, 3 h): 64 nM; EC50 (SUDHL10 cells [2]; read-out: Caspase SUDHL10 EC50 (median); caspase-3/7 induction, 3 h): 150 nM; IC50 [3]: 617 nM; IC50 (SUDHL10 cells [5]): 140 nM; IC50 (SUDHL5 cells [6]; read-out: Antiproli SUDHL5 IC50 (median); 72 h, CellTiter-Glo): 30 nM
2 | 27 | 13 | 30 | 141 | 252 | 1110 | 209 | CCc1c2c(nn1C)C(CCN1CCOCC1)OCC(F)(F)CCn1c(C(=O)O)c(CCCOc3cccc4cc(F)ccc34)c3ccc(Cl)c-2c31 (single isomer, unassigned; (+)) [Example 90, (+)-4-chloro-3-ethyl-12,12-difluoro-7-{3-[(6-fluoronaphthalen-1-yl)oxy]propyl}-2-methyl-15-[2-(morpholin-4-yl)ethyl]-2,10,11,12,13,15-hexahydropyrazolo[4′,3′:9,10][1,6]oxazacycloundecino[8,7,6-hi]indole-8-carboxylic Acid] | 30 | 24.2 | 416 | 422 | 163 | –
3 | 36 | 23 | 40 | 305 | 299 | 221 | 361 | CCc1c2c(nn1C)C(CCN1CCOCC1)N(C)CCCCn1c(C(=O)O)c(CCCOc3cccc4cc(F)ccc34)c3ccc(Cl)c-2c31 (single isomer, unassigned) [Example 94, 4-chloro-3-ethyl-7-{3-[(6-fluoronaphthalen-1-yl)oxy]propyl}-2,14-dimethyl-15-[2-(morpholin-4-yl)ethyl]-10,11,12,13,14,15-hexahydro-2H-pyrazolo[3′,4′:8,9][1,6]diazacycloundecino[10,11,1-hi]indole-8-carboxylic Acid] | 40 | 41.3 | 777 | 218 | 133 | –

Row | Structure (SMILES) | EC50 (SUDHL5 cells [1]; [7]) [nM] | EC50 (SUDHL10 cells [2]; [8]) [nM] | IC50 (SUDHL5 cells [6]; [9]) [nM] | IC50 (SNU-389 cells) [nM] | IC50 (SK-MEL-2 cells) [nM] | IC50 (SNU-16 cells) [nM] | IC50 (A-431 cells) [nM] | IC50 (SUDHL5 cells [4]) [nM] | IC50 (AMO-1 cells) [nM] | IC50 (HMC-1-8 cells; [10]) [nM] | IC50 (PA-1 cells) [nM] | IC50 (DMS-114 cells) [nM] | other results
4 | CCc1c2c(nn1C)C(CCN1CCC(F)(F)C1)OCCCCn1c(C(=O)O)c(CCCOc3cccc4cc(F)ccc34)c3ccc(Cl)c-2c31 (single isomer, unassigned; enantiomer 1) [Example 58, 4-chloro-15-[2-(3,3-difluoropyrrolidin-1-yl)ethyl]-3-ethyl-7-{3-[(6-fluoronaphthalen-1-yl)oxy]propyl}-2-methyl-2,10,11,12,13,15-hexahydropyrazolo[4′,3′:9,10][1,6]oxazacycloundecino[8,7,6-hi]indole-8-carboxylic Acid (Enantiomer 1)] | – | – | – | 223 | 728 | 135 | 486 | – | – | – | 110 | 81.1 | EC50 (SUDHL5 cells [1]; Homo sapiens, SU-DHL-5, 3 h, caspase-3/7 induction, 3 h; read-out: Caspase SUDHL5 EC50 (median)): 26 nM; EC50 (SUDHL10 cells [2]; Homo sapiens, SU-DHL10, 3 h, caspase-3/7 induction, 3 h; read-out: Caspase SUDHL10 EC50 (median)): 23 nM; IC50 (SUDHL5 cells [4]; Homo sapiens, SU-DHL-5, 5 h): 28 nM; IC50 (SUDHL10 cells [5]; Homo sapiens, SU-DHL10, 5 h): 43 nM; IC50 (SUDHL5 cells [6]; Homo sapiens, SU-DHL-5, 72 h, 72 h, CellTiter-Glo; read-out: Antiproli SUDHL5 IC50 (median)): 29 nM; IC50 (AMO-1 cells; Homo sapiens, AMO1, 72 h): 19.4 nM; IC50 (HMC-1-8 cells; 72 h, CellTiter-Glo, read-out: Antiproli HMC-1-8 IC50 median): 328 nM
